This data set addresses DGAT2. As to conditions: ASO.

Where “and” joins values, the source holds several entries; their conditions need not be identical. Identical values can stand only once. After the bases stand the sugars from the 5' end (letter, count) and the backbone: PS all phosphorothioate, else s phosphorothioate and o phosphodiester by linkage. Methylation of C is not given here. e = 2'-O-(2-methoxyethyl) (MOE); d = 2'-deoxy (DNA)

The values that follow come from the OligoGym collection.

Consider “TAAGCCTCGGTGTCCTCTCC (sugars e5 d10 e5, PS)”, for which the target mRNA inhibition by setting is: (HepG2, 2.5 µM) 90%; (HepG2, 10 µM) 73%.
Under “HepG2, 0.12 µM”, “CATTGCCACCCCCATCCTCA (sugars e5 d10 e5, PS)” registered a target mRNA inhibition of 9%.
With “CTCTCATTTCTTATCTTCAA (sugars e5 d10 e5, PS)”, the target mRNA inhibition by setting is: (HepG2, 2.5 µM) 70%; (HepG2, 10 µM) 93%.
“TCACTTGCTTGAGGTCAGGG (sugars e5 d10 e5, PS)”: the target mRNA inhibition by setting is: (HepG2, 2.5 µM) 71% and 79%; (HepG2, 10 µM) 80% and 89%.
“CACCAGCCAAGTGAAGTAGA (sugars e5 d10 e5, PS)” had a target mRNA inhibition (HepG2, 0.12 µM) of 23%.
In the case of “CGCAGGACCCCGGAGTAGGC (sugars e3 d14 e3, PS)”, the target mRNA inhibition (HepG2, 0.12 µM) was 65%.
Still for that read-out and setting: the figure for “CAGGTACTCCCTCAACACAG (sugars e5 d10 e5, PS)” is 52%.
Same read-out and setting: the figure for “GGCCCAACCCCCTCAGGAAG (sugars e5 d10 e5, PS)” is 19%; for “AATTTCCTTACAGGGTATTG (sugars e5 d10 e5, PS)” it is 46%.
Still for that read-out and setting: the value for “GGTCAGCAGGTTGTGTGTCT (sugars e3 d14 e3, PS)” was 57%.
With “AGCTCAGAGACTCAGCCGCA (sugars e5 d10 e5, PS)”, the target mRNA inhibition reads like this: (HepG2, 2.5 µM) 38% and 44% and 55%; (HepG2, 10 µM) 78% and 86%; (HepG2, 20 µM) 89% and 97%.
As for “TGACCTGTAGCTGCTTTTCC (sugars e5 d10 e5, PS)”, for the setting “HepG2, 0.12 µM”, the target mRNA inhibition was 35%.
Still for that read-out and setting: the value for “GCGCAGGACCCCGGAGTAGG (sugars e2 d13 e5, PS)” was 72%; that for “CTGGAGGCCAGTCCAGGCTC (sugars e5 d10 e5, PS)” was 23%.
Turning to “GTTGTGTGTCTTCACCAGCT (sugars e5 d10 e5, PS)”, the target mRNA inhibition (HepG2, 0.12 µM) was 54% and 68%.
“AGCTTGGTGAATAGCTATGT (sugars e5 d10 e5, PS)”: the target mRNA inhibition runs as follows: (HepG2, 2.5 µM) 75% and 68%; (HepG2, 10 µM) 93% and 92%.
Turning to “GCAATGTTGCCATCATACTA (sugars e5 d10 e5, PS)”, the target mRNA inhibition was found to be 63% (HepG2, 2.5 µM) and 88% (HepG2, 10 µM).
Consider “GCTCAGAGACTCAGCCGCAC (sugars e2 d13 e5, PS)”, for which the target mRNA inhibition runs as follows: (HepG2, 0.12 µM) 82%; (HepG2, 2.5 µM) 13%; (HepG2, 10 µM) 35%; (HepG2, 20 µM) 66%.
Where the note is “HepG2, 0.12 µM”, “ATTGCCACTCCCATTCTTTG (sugars e5 d10 e5, PS)” showed a target mRNA inhibition of 35%.
On the same count and under the same terms, the value for “GAGGCTCAGGCCTTGACAAC (sugars e5 d10 e5, PS)” was 12%; that for “GGGCAGTCCTTTCCCCTGCA (sugars e5 d10 e5, PS)” was 37%.
On to “ACTTCTTCTGGACCCATCGG (sugars e5 d10 e5, PS)”, for which, under “HepG2, 0.12 µM”, the target mRNA inhibition stood at 28%.
“GTTTCCTTTGAAATCCAATG (sugars e5 d10 e5, PS)”: the target mRNA inhibition is 69% and 68% (HepG2, 2.5 µM); 90% and 81% (HepG2, 10 µM).
Sequence “CGCAGGGCCAGTTTCACAAA (sugars e5 d10 e5, PS)” displayed a target mRNA inhibition (HepG2, 0.12 µM) of 31%.
Turning to “AGCACTTGATCTGGGACCCA (sugars e5 d10 e5, PS)”, the target mRNA inhibition reads like this: (HepG2, 2.5 µM) 65%; (HepG2, 10 µM) 94%.
Sequence “CCTACAGCAGAGGGAAGATG (sugars e5 d10 e5, PS)” gave a target mRNA inhibition (HepG2, 0.12 µM) of 13%.
On the same count and under the same terms, the figure for “ACCAGCTGGATGGGAAAGTA (sugars e5 d10 e5, PS)” is 21%.
Still for that read-out and setting: the value for “TTTCGGACCCACTGTGACCT (sugars e5 d10 e5, PS)” was 65%.
For the sequence “GTGAAGTTCTATCCCTTGGC (sugars e5 d10 e5, PS)”, the target mRNA inhibition (HepG2, 2.5 µM) is 58% and 71%; the target mRNA inhibition (HepG2, 10 µM) was 91% and 93%.
With “GGTTGTGTGTCTTCACCAGC (sugars e2 d13 e5, PS)”, the target mRNA inhibition (HepG2, 0.12 µM) amounted to 68%.
As for “TCACAGAATTATCAGCAGTA (sugars e5 d10 e5, PS)”, the target mRNA inhibition is, setting by setting: (HepG2, 2.5 µM) 80% and 61%; (HepG2, 10 µM) 93% and 84%.
Sequence “ATCTCAGTCACTGACTCACA (sugars e5 d10 e5, PS)” displayed a target mRNA inhibition (HepG2, 2.5 µM) of 46% and a target mRNA inhibition (HepG2, 10 µM) of 95%.
Turning to “GTACTCCCTCAACACAGGCA (sugars e5 d10 e5, PS)”, the target mRNA inhibition (HepG2, 0.12 µM) stood at 72%.
For the sequence “CAGGACCTCAGGGCTGGCCC (sugars e5 d10 e5, PS)”, the target mRNA inhibition was 57% and 50% (HepG2, 2.5 µM); 71% (HepG2, 10 µM).
The sequence “GGGTGTGTTCCAGTCAAACA (sugars e5 d10 e5, PS)” displayed a target mRNA inhibition (HepG2, 0.12 µM) of 6%.
“GTGGTTGCAATGTTGCCATC (sugars e5 d10 e5, PS)”: the target mRNA inhibition runs as follows: (HepG2, 2.5 µM) 83% and 81% and 76%; (HepG2, 10 µM) 92% and 84% and 91%.
Take “TGCTTATCCTTGAGGGTCTC (sugars e5 d10 e5, PS)”: the target mRNA inhibition by setting is: (HepG2, 2.5 µM) 64%; (HepG2, 10 µM) 84%.
The matching figures for “AGGCCTCGGGAAGCACCTGG (sugars e5 d10 e5, PS)”: 39% and 84%.
Sequence “GCATTGCCACTCCCATTCTT (sugars e2 d13 e5, PS)” had a target mRNA inhibition (HepG2, 0.12 µM) of 61%.
Turning to “GGCTGTCAGAGGCTACTGGC (sugars e5 d10 e5, PS)”, the target mRNA inhibition by setting is: (HepG2, 2.5 µM) 74%; (HepG2, 10 µM) 63%.
In turn, “AGGCATGGAGCTCAGAGACT (sugars e2 d13 e5, PS)” gave a target mRNA inhibition (HepG2, 0.12 µM) of 78%.
Still for that read-out and setting: the figure for “TCTTTGAAAGCAAATAGTCT (sugars e5 d10 e5, PS)” is 40%.
In the case of “GGTTGCAATGTTGCCATCAT (sugars e5 d10 e5, PS)”, the target mRNA inhibition reads like this: (HepG2, 2.5 µM) 91% and 83%; (HepG2, 10 µM) 93% and 91%.
The sequence “TGGAGTAGGGCACCAGCCCC (sugars e5 d10 e5, PS)” came in with a target mRNA inhibition (HepG2, 0.12 µM) of 28%.
Take “ACAGCCCAGTTTCGGACCCA (sugars e5 d10 e5, PS)”: under “HepG2, 0.12 µM”, the target mRNA inhibition was 27%.
Consider “GGAGTTCTCGAATATCCCTA (sugars e5 d10 e5, PS)”, for which the target mRNA inhibition is 74% and 82% and 85% (HepG2, 2.5 µM); 90% and 94% (HepG2, 10 µM).
Under “HepG2, 0.12 µM”, “ATATACAAAAGTCTGACATG (sugars e5 d10 e5, PS)” had a target mRNA inhibition of 21%.
Same read-out and setting: the value for “GAAACAGGCAGTAGGAAATC (sugars e5 d10 e5, PS)” was 23%; that for “CAGTTTCGGACCCACTGTGA (sugars e3 d14 e3, PS)” was 58%.
As to “GGTGGTTGCAATGTTGCCAT (sugars e5 d10 e5, PS)”, the target mRNA inhibition reads like this: (HepG2, 2.5 µM) 90% and 76%; (HepG2, 10 µM) 93% and 90%.
Turning to “CAGGCCCCACTGCTTAGAGG (sugars e5 d10 e5, PS)”, the target mRNA inhibition (HepG2, 0.12 µM) came to 48%.
Where the note is “HepG2, 0.12 µM”, “TGGAACTTCTTCTGGACCCA (sugars e5 d10 e5, PS)” yielded a target mRNA inhibition of 43%.
On to “AGCCTCGGTGTCCTCTC (sugars e3 d10 e4, PS)”, for which the target mRNA inhibition was found to be 8% (HepG2, 2.5 µM) and 90% (HepG2, 10 µM).
Under “HepG2, 0.12 µM”, “AGGTTAGCTGAGCCACCCAG (sugars e5 d10 e5, PS)” displayed a target mRNA inhibition of 59%.
In the case of “GAGGAGTTCTCGAATATCCC (sugars e5 d10 e5, PS)”, the target mRNA inhibition reads like this: (HepG2, 2.5 µM) 43%; (HepG2, 10 µM) 80%.
Take “TTGTGTGTCTTCACCAGCTG (sugars e5 d10 e5, PS)”: the target mRNA inhibition (HepG2, 0.12 µM) is 63% and 73%.
For “AACAGGGTACAACTCTCTTG (sugars e5 d10 e5, PS)”, the target mRNA inhibition is 61% (HepG2, 2.5 µM) and 92% (HepG2, 10 µM).
“AGAGGGTTCCATGGCACAAA (sugars e5 d10 e5, PS)”: for the setting “HepG2, 0.12 µM”, the target mRNA inhibition came to 67%.
On the same count and under the same terms, the figure for “TCAGAAGGCCAGGCCCCTTC (sugars e5 d10 e5, PS)” is 20%.
For the sequence “CCCAACCTTTAAGGCCTATC (sugars e5 d10 e5, PS)”, the target mRNA inhibition is, setting by setting: (HepG2, 2.5 µM) 46%; (HepG2, 10 µM) 85%.
The matching figures for “CCTGCTTGTACACTTCATTC (sugars e5 d10 e5, PS)”: 51% and 87%.
Turning to “CTTGGAGTAGGGCACCAGCC (sugars e5 d10 e5, PS)”, the target mRNA inhibition (HepG2, 0.12 µM) turned out to be 35%.
Still for that read-out and setting: the value for “GGGCACCAGCCCCCAGGTGT (sugars e5 d10 e5, PS)” was 34%.
Take “GTTAGGATGCTTAACTTCTG (sugars e5 d10 e5, PS)”: the target mRNA inhibition (HepG2, 2.5 µM) worked out at 51% and the target mRNA inhibition (HepG2, 10 µM) was 86%.
Sequence “TGGACAAGTCCTGCCCATCT (sugars e5 d10 e5, PS)” yielded a target mRNA inhibition (HepG2, 0.12 µM) of 72%.
Regarding “AAGGCACCTGTTACTACATG (sugars e5 d10 e5, PS)”, the target mRNA inhibition turned out to be 67% (HepG2, 2.5 µM) and 93% (HepG2, 10 µM).
The matching figures for “ACAAAAGTCTGACATGGTGC (sugars e5 d10 e5, PS)”: 77% and 78%.
“AGTCTAGTTGGAAAAGTAGA (sugars e5 d10 e5, PS)” had a target mRNA inhibition (HepG2, 0.12 µM) of 16%.
Regarding “GCCGTATGCCTGGGAACTTC (sugars e5 d10 e5, PS)”, the target mRNA inhibition (HepG2, 0.12 µM) was found to be 29%.
Same read-out and setting: the figure for “GATATAGTTCCTGGTGGTCA (sugars e5 d10 e5, PS)” is 57%; for “AAGTGAACCCTCACTTCCCA (sugars e5 d10 e5, PS)” it is 35%; for “AGGTTGTGTGTCTTCACCAG (sugars e5 d10 e5, PS)” it is 59% and 74%.
“TTAGCTCTCAGTGAAGCTGG (sugars e5 d10 e5, PS)”: the target mRNA inhibition by setting is: (HepG2, 2.5 µM) 93%; (HepG2, 10 µM) 82%.
“CAGGTTGTGTGTCTTCACCA (sugars e2 d13 e5, PS)” returned a target mRNA inhibition (HepG2, 0.12 µM) of 62%.
Same read-out and setting: the value for “CCCTTGCGGTTCCGCAGGGT (sugars e5 d10 e5, PS)” was 36%; that for “CAGGTAAGGCCGTATGCCTG (sugars e5 d10 e5, PS)” was 63%.
Consider “CGGAGAGGATGCTGGATCCA (sugars e5 d10 e5, PS)”, for which the target mRNA inhibition (HepG2, 0.12 µM) came to 47%.
“TGTGATGACTTCCCAGGGTC (sugars e5 d10 e5, PS)”: the target mRNA inhibition by setting is: (HepG2, 2.5 µM) 85%; (HepG2, 10 µM) 76%.
For the sequence “AGCATTGCCACTCCCATTCT (sugars e2 d13 e5, PS)”, the target mRNA inhibition (HepG2, 0.12 µM) stood at 50%.
